Common to all, as to type: cell-based, mice
Test [1] concerns the target T1, fast synaptic α1β2γ2 receptors (Mus musculus, UniProt P22723+P62812+P63137).
T1 construct: from tissue; host or cells: mouse cortical and hippocampal brain slices; tdTomato-labelled PV+ interneurons
Briefly: Phasic current recordings in fluorescently labeled PV+INs. The conditions noted are these: 1 nM, 1-(current in drug/current in control), read-out: fraction inhibited of the phasic current. An excerpt:
(§1) Mice aged 8-24 weeks of both sexes will be anesthetized with halothane and decapitated according to the UCLA Chancellor's Animal Research Committee protocol. Horizontal 350 μm hippocampal slices are cut on a Leica VT1000S Vibratome in ice-cold N-Methyl-D-Glucamine (NMDG)-based HEPES-buffered cutting solution, containing in mM: NMDG 135, D-glucose 10, MgCl2 4, CaCl20.5, KCl 1, KH2PO4 1.2, HEPES 26, kynurenic acid 3, pH 7.3-7.4, 295-297 mOsm/l, bubbled with 100% O2. […]
(§2) For these experiments mice expressing hChR2(H134R)-tdTomato specifically in PV+Ins will be used. […] Cells will be voltage-clamped at 0 mV where tonic and phasic GABAAR mediated currents can be recorded without interference from excitatory events. The tonic and phasic components of the currents will be determined as published using Gaussian fits to the all-points histograms of 30 s epochs of recordings during the pre-drug period, 5-10 min after the washin of the drug to be tested, and 1-2 min after washing-in 40 μM of the pan-GABAAR blocker gabazine (SR-95531). The magnitude of the tonic and phasic currents willbe determined by subtracting the currents in the presence of gabazine. […]

For another test, the target named is T2, α1β2δ GABAARs of PV+INs (Mus musculus, UniProt P22933+P62812+P63137).
T2 construct: the native α1β2δ receptors of PV+INs; from tissue; host or cells: mouse cortical and hippocampal brain slices; tdTomato-labelled PV+ interneurons
T2 sequence (P62812 28-455): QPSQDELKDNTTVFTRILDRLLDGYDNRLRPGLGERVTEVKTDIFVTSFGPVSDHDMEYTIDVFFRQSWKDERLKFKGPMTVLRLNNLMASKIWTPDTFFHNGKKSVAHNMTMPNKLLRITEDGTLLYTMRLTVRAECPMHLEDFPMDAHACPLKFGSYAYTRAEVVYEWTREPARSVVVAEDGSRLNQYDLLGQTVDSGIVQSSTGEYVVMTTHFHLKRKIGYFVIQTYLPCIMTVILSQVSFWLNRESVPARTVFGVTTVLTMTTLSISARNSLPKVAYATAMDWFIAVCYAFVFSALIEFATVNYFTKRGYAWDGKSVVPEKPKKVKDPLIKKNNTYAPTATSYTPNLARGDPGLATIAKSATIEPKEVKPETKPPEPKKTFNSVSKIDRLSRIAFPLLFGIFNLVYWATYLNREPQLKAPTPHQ
T2 sequence (P63137 26-512): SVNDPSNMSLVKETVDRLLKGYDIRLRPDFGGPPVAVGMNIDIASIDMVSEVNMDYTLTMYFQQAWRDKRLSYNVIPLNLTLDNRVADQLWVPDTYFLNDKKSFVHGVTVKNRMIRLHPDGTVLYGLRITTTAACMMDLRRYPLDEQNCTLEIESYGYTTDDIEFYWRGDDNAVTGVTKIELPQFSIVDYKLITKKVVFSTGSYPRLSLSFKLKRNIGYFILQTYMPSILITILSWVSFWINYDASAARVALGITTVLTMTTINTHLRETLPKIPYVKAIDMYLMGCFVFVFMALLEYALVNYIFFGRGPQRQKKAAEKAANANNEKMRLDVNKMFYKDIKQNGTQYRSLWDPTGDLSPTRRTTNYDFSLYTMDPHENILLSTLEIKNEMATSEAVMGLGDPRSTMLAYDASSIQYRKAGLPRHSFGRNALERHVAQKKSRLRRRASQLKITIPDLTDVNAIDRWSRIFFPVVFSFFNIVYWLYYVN
T2 sequence (P22933 25-449): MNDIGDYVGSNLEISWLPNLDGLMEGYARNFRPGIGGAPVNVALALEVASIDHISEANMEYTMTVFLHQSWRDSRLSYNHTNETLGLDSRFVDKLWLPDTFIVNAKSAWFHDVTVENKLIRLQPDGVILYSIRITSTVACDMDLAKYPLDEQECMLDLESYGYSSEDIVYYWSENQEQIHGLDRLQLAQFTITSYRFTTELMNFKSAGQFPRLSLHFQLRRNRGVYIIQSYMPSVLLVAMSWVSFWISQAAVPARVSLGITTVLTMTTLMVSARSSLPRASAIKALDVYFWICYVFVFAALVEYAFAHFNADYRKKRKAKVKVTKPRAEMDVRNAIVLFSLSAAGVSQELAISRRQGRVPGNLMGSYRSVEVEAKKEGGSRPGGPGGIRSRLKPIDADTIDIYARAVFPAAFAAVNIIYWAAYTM
Put plainly: Tonic current recordings in fluorescently labeled PV+INs. To be noted: 1 nM, 1-(current in drug/current in control), read-out: fraction inhibited of the tonic current.
Source text: as §1, §2

For test [2], the system named is dentate gyrus granule cells (α4β2/3δ). Briefly: Tonic inhibition in dentate gyrus granule cells (selectivity). To be noted: 1 nM. The source says:
In addition to the α1β2δ GABAARs of PV+INs, the following native δ-GABAARs subunit combinations are present in the brain: (α6β2δ on cerebellar granule cells; α4β2/3δ are most prominent in the forebrain where they are found among other neurons on dentate gyrus granule cells. To establish selectivity of the compounds for the α1β2δ GABAARs of PV+INs, the compounds effects in cerebellar granule cells (α6β2δ) and dentate gyrus granule cells (α4β2/3δ) will be compared.
Selectivity measurement will be performed by dividing the blocking fractions of the compounds for tonic inhibition obtained for the PV+IN above by the values determined for cerebellar and dentate gyrus granule cells.

The subject of test [3] is γ-oscillations in the CA3 region hippocampal slices. Briefly: In vitro KA-induced γ-oscillations in the CA3 region hippocampal slices. To be noted: 1 nM; 2 min epochs before and after application; 50 nM kainic acid.
Source text: as §1
The oscillations can be recorded in the presence of 50 nM kainic acid in horizontally cut hippocampal slices just below the CA3 pyramidal cells layer, and the oscillations recorded in vitro correspond well to those recorded in vivo during spatial reference memory. […] The squared magnitude of the FFT of the oscillations will be analyzed between 30-120 Hz. The area under the FFT curve will be calculated between these two frequencies and compared during a 2 min epoch just before the perfusion of the drug to the last 2 min of a 10 min drug perfusion. The ratios of the areas in-drug/pre-drug will be calculated as in FIG. 1B.
γ-oscillations were recorded in the presence of 50 nM kainic acid in horizontally cut hippocampal slices just below the CA3 pyramidal cells layer. These oscillations recorded in vitro correspond well to those recorded in vivo during spatial reference memory. […]

Each structure is given as a SMILES string.

The text below walks through data of patent US20240208935A1, “COMPOSITIONS AND METHODS FOR TREATING NEURODEGENERATIVE DISEASES” (The Regents of the University of California, priority 2021, published 2024).

T1 sequence (P62812 28-455): as the sequence (P62812 28-455) above
T1 sequence (P63137 25-512 limits assumed): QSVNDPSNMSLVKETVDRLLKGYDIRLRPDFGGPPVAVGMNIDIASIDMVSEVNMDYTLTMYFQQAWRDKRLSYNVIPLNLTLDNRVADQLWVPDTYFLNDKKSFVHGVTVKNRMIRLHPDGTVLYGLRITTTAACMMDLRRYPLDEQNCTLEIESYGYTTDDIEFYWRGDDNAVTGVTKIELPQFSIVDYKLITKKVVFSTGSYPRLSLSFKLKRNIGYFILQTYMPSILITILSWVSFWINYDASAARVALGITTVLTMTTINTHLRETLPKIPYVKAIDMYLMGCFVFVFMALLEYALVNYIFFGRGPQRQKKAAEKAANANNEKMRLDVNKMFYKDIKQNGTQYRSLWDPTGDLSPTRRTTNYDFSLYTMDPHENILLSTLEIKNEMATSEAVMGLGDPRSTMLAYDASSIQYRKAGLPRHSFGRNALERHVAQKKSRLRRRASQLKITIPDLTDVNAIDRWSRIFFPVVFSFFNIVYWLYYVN
T1 sequence (P22723 39-474): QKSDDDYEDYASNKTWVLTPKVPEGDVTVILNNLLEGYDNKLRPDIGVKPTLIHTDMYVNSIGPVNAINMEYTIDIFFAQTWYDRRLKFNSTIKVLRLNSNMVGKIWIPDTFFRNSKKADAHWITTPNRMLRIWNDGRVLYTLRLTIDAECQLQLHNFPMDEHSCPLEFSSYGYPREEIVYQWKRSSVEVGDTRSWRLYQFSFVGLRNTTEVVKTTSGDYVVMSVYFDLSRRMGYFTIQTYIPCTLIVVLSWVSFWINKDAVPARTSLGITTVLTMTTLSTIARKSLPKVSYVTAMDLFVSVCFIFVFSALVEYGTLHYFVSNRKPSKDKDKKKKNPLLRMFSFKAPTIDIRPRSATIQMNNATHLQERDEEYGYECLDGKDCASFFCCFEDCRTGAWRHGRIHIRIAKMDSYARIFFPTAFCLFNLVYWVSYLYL

`On1cc(C2CCNCC2)c(Cc2ccc3ccccc3c2)n1` [DDL-920, 3-(naphthalen-2-ylmethyl)-4-(piperidin-4-yl)-1H-pyrazol-1-ol]: the results for the inhibition at 0.001 µM (in test [1]; on α1β2δ GABAARs of PV+INs) were 1.1% and 79.2%, respectively. In addition, the “blocking fraction for tonic inhibition in dentate granule cells” value in test [2] came out at 0.376. Also, in test [2] (PV+IN/dentate granule cell), the “selectivity, PV+IN vs dentate granule cell blocking fraction of tonic inhibition” value came to 2.11. For the same compound, in test [3], the “ratio of the drug/control areas under the FFT curve between 30-120 Hz” value is 4.26.
